Holding throughout (format): cell-based, murine
Test [1] concerns the target Ba/F3 EGFR L858R/C797S mutants (Homo sapiens, UniProt P00533, C797S/L858R, cells depend on it). Briefly: CellTiter-Glo cell viability, Ba/F3 EGFR L858R/C797S cells. The note with it: 72 hours, read-out: Ba/F3 EGFR mutant cell (IC50, nM) L/C. In a few lines:
(§1)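 Luminescent ATP read-out (CellTiter-Glo) after 72 h compound exposure, 0–2000 nM dilution series. Cells plated 2500/well, dosed 24 h post-seeding. IC50 from luminescence curves.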
For orientation: Cellular ATP, detected with luciferase, serves as a proxy for viable cell number.

Test [2] concerns the target Ba/F3 EGFR L858R/T790M/C797S mutants (Homo sapiens, UniProt P00533, T790M/C797S/L858R, cells depend on it). Briefly: CellTiter-Glo cell viability, Ba/F3 EGFR L858R/T790M/C797S cells. To be noted: 72 hours, read-out: Ba/F3 EGFR mutant cell (IC50, nM) L/T/C. Summed up: as §1
The target in test [3] is Ba/F3 EGFR Del19/C797S mutants (Homo sapiens, UniProt P00533, C797S, cells depend on it, form not given). The experiment in a line: CellTiter-Glo cell viability, Ba/F3 EGFR Del19/C797S cells. The note with it: 72 hours, read-out: Ba/F3 EGFR mutant cell (IC50, nM) D/C. In a few lines:
as §1

Test [4] addresses Ba/F3 EGFR Del19/T790M mutants (Homo sapiens, UniProt P00533, T790M, cells depend on it, form not given). Briefly: CellTiter-Glo cell viability, Ba/F3 EGFR Del19/T790M cells. The note with it: 72 hours, read-out: Ba/F3 EGFR mutant cell (IC50, nM) D/T. Summed up:
as §1

Test [5] has as its target Ba/F3 EGFR Del19/T790M/C797S mutants (Homo sapiens, UniProt P00533, T790M/C797S, cells depend on it, form not given). Briefly: CellTiter-Glo cell viability, Ba/F3 EGFR Del19/T790M/C797S cells. The note with it: 72 hours, read-out: Ba/F3 EGFR mutant cell (IC50, nM) D/T/C. Summed up: as §1
Test [6] addresses Ba/F3 EGFR Wild-type (Homo sapiens, UniProt P00533). Briefly: CellTiter-Glo cell viability, Ba/F3 EGFR wild-type cells. To be noted: 72 hours, read-out: Ba/F3 EGFR mutant cell (IC50, nM) WT. In a few lines:
as §1

Results on 15 molecules are retold here after patent US12297194B2, “N2-phenylpyrimidine-2,4-diamine compounds, and preparation methods and methods of use thereof” (BRIDGE BIOTHERAPEUTICS, INC., priority 2021, dated 2025).

A value given as a limit tells only on which side of the number the result lay.

Sequence of Ba/F3 EGFR Del19/T790M mutants (P00533 with tags, fused parts or gaps DEL746-750/T790M, form open): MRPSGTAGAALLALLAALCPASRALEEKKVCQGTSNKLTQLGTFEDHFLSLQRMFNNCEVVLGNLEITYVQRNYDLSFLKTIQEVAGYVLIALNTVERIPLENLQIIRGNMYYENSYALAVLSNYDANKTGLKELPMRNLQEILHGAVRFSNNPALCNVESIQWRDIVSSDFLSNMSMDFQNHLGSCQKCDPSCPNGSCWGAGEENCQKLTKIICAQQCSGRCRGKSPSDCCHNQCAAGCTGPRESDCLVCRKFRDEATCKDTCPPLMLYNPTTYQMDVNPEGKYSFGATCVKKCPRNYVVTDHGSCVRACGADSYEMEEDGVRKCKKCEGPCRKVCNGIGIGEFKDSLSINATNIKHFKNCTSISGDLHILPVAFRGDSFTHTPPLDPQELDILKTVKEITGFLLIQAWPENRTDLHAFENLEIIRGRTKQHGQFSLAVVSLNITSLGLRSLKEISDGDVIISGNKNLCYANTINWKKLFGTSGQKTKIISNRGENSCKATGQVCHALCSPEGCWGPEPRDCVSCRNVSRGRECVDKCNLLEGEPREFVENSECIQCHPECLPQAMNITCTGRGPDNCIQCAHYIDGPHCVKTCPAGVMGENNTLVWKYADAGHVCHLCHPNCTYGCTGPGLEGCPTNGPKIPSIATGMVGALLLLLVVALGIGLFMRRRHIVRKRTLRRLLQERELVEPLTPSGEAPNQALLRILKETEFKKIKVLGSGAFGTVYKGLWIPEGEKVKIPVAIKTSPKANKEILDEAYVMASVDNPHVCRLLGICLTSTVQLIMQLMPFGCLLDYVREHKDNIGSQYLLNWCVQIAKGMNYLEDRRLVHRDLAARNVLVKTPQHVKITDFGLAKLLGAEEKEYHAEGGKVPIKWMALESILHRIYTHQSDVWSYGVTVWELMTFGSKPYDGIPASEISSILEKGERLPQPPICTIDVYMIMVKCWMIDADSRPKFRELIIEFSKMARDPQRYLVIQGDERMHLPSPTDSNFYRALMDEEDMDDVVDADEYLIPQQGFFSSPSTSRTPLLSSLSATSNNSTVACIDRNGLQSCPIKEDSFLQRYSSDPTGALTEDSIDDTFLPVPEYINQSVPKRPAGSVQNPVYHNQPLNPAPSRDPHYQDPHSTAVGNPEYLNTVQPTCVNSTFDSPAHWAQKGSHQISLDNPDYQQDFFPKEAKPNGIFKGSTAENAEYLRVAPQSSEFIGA
Sequence of Ba/F3 EGFR Wild-type (P00533 whole entry, change not shown): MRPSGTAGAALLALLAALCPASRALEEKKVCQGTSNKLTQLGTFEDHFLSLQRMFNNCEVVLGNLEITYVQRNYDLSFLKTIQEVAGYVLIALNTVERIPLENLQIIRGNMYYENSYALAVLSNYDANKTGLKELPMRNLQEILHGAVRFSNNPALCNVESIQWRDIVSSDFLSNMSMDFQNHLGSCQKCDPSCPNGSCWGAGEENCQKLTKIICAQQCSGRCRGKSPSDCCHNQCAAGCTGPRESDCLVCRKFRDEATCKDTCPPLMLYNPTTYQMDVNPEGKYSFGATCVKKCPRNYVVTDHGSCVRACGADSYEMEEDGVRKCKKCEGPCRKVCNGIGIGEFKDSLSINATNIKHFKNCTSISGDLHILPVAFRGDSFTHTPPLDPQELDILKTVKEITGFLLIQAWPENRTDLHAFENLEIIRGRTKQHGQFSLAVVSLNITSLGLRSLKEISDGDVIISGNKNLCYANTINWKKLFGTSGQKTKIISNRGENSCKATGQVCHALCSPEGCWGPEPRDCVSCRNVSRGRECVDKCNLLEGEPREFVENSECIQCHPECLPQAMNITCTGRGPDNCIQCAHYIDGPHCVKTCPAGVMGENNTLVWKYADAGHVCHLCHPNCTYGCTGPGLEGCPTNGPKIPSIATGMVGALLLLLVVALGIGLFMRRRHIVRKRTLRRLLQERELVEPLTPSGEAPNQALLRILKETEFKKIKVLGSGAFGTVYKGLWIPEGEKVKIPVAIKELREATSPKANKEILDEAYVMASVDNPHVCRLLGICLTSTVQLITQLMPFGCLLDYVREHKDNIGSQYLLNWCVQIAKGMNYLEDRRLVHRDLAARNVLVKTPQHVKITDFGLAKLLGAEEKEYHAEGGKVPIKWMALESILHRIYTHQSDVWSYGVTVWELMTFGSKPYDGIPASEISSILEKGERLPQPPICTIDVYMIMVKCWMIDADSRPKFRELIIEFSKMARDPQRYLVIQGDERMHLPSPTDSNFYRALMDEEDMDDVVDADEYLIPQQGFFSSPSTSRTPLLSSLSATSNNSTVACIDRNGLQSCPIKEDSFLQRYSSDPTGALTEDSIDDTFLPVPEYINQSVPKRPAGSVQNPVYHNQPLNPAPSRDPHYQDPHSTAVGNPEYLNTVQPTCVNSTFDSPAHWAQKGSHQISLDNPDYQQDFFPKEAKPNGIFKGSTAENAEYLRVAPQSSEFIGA
Sequence of Ba/F3 EGFR Del19/C797S mutants (P00533 with tags, fused parts or gaps DEL746-750/C797S, form open): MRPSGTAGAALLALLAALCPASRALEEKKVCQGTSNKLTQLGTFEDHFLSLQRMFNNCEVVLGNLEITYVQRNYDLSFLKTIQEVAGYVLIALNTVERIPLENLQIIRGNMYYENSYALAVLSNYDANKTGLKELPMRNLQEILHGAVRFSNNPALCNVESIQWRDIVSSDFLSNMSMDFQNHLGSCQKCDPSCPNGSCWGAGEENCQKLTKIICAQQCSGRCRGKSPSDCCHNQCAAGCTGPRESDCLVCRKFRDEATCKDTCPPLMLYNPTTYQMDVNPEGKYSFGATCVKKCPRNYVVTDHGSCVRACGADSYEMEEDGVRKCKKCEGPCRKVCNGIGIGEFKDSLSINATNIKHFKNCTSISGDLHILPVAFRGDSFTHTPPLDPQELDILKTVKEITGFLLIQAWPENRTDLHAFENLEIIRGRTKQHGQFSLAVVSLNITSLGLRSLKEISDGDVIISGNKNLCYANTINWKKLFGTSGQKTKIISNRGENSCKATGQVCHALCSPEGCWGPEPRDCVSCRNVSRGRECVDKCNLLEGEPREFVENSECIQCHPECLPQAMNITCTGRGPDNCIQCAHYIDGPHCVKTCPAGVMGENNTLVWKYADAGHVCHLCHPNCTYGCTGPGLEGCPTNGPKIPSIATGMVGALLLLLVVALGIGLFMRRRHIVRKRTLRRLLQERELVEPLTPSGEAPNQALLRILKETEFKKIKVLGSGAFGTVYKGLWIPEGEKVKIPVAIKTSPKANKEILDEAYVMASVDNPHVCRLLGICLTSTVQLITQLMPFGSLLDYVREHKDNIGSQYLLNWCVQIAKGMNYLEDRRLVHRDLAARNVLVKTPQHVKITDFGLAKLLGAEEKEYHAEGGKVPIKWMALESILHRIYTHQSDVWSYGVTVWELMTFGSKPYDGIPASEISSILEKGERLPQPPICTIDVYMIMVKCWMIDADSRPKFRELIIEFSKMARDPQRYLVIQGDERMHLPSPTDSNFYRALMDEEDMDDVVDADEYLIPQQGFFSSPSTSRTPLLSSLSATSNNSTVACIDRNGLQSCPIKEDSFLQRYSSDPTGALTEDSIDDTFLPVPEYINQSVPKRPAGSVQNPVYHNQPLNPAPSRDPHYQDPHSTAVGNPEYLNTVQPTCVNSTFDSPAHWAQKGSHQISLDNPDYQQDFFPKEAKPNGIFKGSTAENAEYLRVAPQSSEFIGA
Sequence of Ba/F3 EGFR L858R/T790M/C797S mutants (P00533 whole entry T790M/C797S/L858R): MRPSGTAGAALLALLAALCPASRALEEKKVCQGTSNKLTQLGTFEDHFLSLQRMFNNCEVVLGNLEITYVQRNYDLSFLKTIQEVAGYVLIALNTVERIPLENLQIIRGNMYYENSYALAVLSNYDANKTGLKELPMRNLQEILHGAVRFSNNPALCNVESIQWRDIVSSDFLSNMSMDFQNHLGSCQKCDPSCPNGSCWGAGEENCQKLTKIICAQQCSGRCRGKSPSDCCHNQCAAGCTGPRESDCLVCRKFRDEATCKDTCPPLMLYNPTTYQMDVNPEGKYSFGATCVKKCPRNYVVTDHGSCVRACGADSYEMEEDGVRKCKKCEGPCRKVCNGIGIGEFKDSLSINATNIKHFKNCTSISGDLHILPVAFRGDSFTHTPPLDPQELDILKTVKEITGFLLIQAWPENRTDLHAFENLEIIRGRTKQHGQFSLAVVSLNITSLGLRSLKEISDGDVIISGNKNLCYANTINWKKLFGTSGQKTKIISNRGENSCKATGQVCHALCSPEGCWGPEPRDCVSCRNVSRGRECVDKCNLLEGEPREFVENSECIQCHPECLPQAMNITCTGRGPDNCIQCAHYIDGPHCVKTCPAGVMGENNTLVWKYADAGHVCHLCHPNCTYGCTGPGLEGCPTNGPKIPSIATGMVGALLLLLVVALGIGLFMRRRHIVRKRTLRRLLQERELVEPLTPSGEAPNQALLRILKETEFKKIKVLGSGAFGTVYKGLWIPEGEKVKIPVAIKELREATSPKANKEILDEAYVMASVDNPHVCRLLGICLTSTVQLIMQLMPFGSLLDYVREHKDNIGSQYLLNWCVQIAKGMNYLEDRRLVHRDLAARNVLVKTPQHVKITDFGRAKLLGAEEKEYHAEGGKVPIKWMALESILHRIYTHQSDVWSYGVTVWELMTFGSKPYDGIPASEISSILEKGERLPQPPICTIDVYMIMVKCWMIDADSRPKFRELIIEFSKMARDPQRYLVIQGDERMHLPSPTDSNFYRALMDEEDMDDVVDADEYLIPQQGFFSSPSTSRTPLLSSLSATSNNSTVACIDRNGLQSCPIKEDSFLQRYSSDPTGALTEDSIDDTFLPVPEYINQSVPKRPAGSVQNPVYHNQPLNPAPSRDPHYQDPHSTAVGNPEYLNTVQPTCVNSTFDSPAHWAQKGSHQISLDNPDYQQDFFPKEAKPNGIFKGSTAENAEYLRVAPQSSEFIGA

As for `COc1cc(N2CCC(N3CCN(CC(F)F)CC3)CC2)ccc1Nc1ncc(Cl)c(Nc2ccc3nccnc3c2NS(C)(=O)=O)n1` [Example A37, N-(6-((5-chloro-2-((4-(4-(4-(2,2-difluoroethyl)piperazin-1-yl)piperidin-1-yl)-2-methoxyphenyl)amino)pyrimidin-4-yl)amino)quinoxalin-5-yl)methane sulfonamide], the GI50 in test [1] came out at 451 nM; in test [2], 640 nM; in test [3], 126 nM; in test [4], 174 nM; in test [5], 205 nM; in test [6], 734 nM.

Regarding `CCS(=O)(=O)Nc1c(Nc2nc(Nc3cc(C)c(N4CCC(N5CCN(C)CC5)CC4)cc3OC)ncc2Br)ccc2nccnc12` [Example A24, N-(6-((5-bromo-2-((2-methoxy-5-methyl-4-(4-(4-methylpiperazin-1-yl)piperidin-1-yl)phenyl)amino)pyrimidin-4-yl)amino)quinoxalin-5-yl)ethanesulfonamide], the GI50 was found to be 114 nM in test [1]; 13 nM in test [2]; 49 nM in test [3]; 10 nM in test [4]; 74 nM in test [5]; 397 nM in test [6].

In the case of `COc1cc(N2CCC(N3CCCC3)CC2)c(C)cc1Nc1ncc(Br)c(Nc2cccc(OC)c2NS(C)(=O)=O)n1` [Example C25, N-(2-((5-bromo-2-((2-methoxy-5-methyl-4-(4-(pyrrolidin-1-yl)piperidin-1-yl)phenyl)amino)pyrimidin-4-yl)amino)-6-methoxyphenyl)methanesulfonamide], the GI50 in test [1] stood at 55 nM; in test [2] it was 44 nM; in test [3], 18 nM; in test [4] it was 6 nM; in test [5], 6 nM; in test [6], 707 nM.

Turning to `CCS(=O)(=O)Nc1c(Nc2nc(Nc3cc(C)c(N4CCC(N5CCN(C)CC5)CC4)cc3OC)ncc2Cl)ccc2nccnc12` [Example A25, N-(6-((5-chloro-2-((2-methoxy-5-methyl-4-(4-(4-methylpiperazin-1-yl)piperidin-1-yl)phenyl)amino)pyrimidin-4-yl)amino)quinoxalin-5-yl)ethanesulfonamide], the GI50 was found to be 112 nM in test [1]; 34 nM in test [2]; 46 nM in test [3]; 18 nM in test [4]; 134 nM in test [5]; 373 nM in test [6].

Regarding `CCCc1cc(Nc2ncc(Cl)c(Nc3cccc(OC)c3N(C)S(C)(=O)=O)n2)c(OC)cc1N1CCC(N(C)C)CC1` [Example C31, N-(2-((5-chloro-2-((4-(4-(dimethylamino)piperidin-1-yl)-2-methoxy-5-propylphenyl)amino)pyrimidin-4-yl)amino)-6-methoxyphenyl)-N-methylmethanesulfonamide], the GI50 in test [1] was determined as 89 nM; in test [2] it was 68 nM; in test [3], 10 nM; in test [4] it was 22 nM; in test [5], 20 nM; in test [6], 698 nM.

For `CCc1cc(Nc2ncc(Br)c(Nc3ccc4nccnc4c3N(C)S(C)(=O)=O)n2)c(OC)cc1N1CCC(N2CCCCC2)CC1` [Example A44, N-(6-((2-((4-([1,4′-bipiperidin]-1′-yl)-5-ethyl-2-methoxyphenyl)amino)-5-bromopyrimidin-4-yl)amino)quinoxalin-5-yl)-N-methylmethanesulfonamide], the GI50 in test [1] is 94 nM; in test [2], 38 nM; in test [3], 6 nM; in test [4], 12 nM; in test [5], 10 nM; in test [6], over 2000 nM.

Take `CCCc1cc(Nc2ncc(Cl)c(Nc3ccc4nccnc4c3N(C)S(C)(=O)=O)n2)c(OC)cc1N1CCC(N2CCCC2)CC1` [Example A42, N-(6-((5-chloro-2-((2-methoxy-5-propyl-4-(4-(pyrrolidin-1-yl)piperidin-1-yl)phenyl)amino)pyrimidin-4-yl)amino)quinoxalin-5-yl)-N-methylmethanesulfonamide]: the GI50 in test [1] came out at 80 nM; in test [2], 117 nM; in test [3], 2 nM; in test [4], 33 nM; in test [5], 7 nM; in test [6] it was 1860 nM.

With `CCS(=O)(=O)Nc1c(Nc2nc(Nc3cc(C)c(N4CCC(N5CCN(C)CC5)CC4)cc3OC)ncc2Cl)cccc1OC` [Example C16, N-(2-((5-chloro-2-((2-methoxy-5-methyl-4-(4-(4-methylpiperazin-1-yl)piperidin-1-yl)phenyl)amino)pyrimidin-4-yl)amino)-6-methoxyphenyl)ethanesulfonamide], the GI50 came out at 51 nM in test [1]; 34 nM in test [2]; 9 nM in test [3]; 6 nM in test [4]; 10 nM in test [5]; 486 nM in test [6].

On to `COc1cc(N2CCC(N3CCCC3)CC2)c(C)cc1Nc1ncc(Cl)c(Nc2ccc3c(c2NS(C)(=O)=O)OCCO3)n1` [Example C27, N-(6-((5-chloro-2-((2-methoxy-5-methyl-4-(4-(pyrrolidin-1-yl)piperidin-1-yl)phenyl)amino)pyrimidin-4-yl)amino)-2,3-dihydrobenzo[b][1,4]dioxin-5-yl)methanesulfonamide], for which the GI50 in test [1] turned out to be 43 nM; in test [2], 48 nM; in test [3] it was 10 nM; in test [4], 16 nM; in test [5] it was 15 nM; in test [6], 565 nM.

Turning to `COc1cc(N2CCC(N3CCN(C)CC3)CC2)ccc1Nc1ncc(Cl)c(Nc2ccc3c(c2NS(C)(=O)=O)OCCO3)n1` [Example C9, N-(6-((5-chloro-2-((2-methoxy-4-(4-(4-methylpiperazin-1-yl)piperidin-1-yl)phenyl)amino)pyrimidin-4-yl)amino)-2,3-dihydrobenzo[b][1,4]dioxin-5-yl)methanesulfonamide], the GI50 in test [1] was found to be 345 nM; in test [2], 356 nM; in test [3] it was 281 nM; in test [4] it was 152 nM; in test [5] it was 260 nM; in test [6] it was 755 nM.

In the case of `COc1cc(N2CCC(N(C)C)CC2)c(C)cc1Nc1ncc(Br)c(Nc2cccc(OC)c2N(C)S(C)(=O)=O)n1` [Example C5, N-(2-((5-bromo-2-((4-(4-(dimethylamino)piperidin-1-yl)-2-methoxy-5-methylphenyl)amino)pyrimidin-4-yl)amino)-6-methoxyphenyl)-N-methylmethanesulfonamide], the GI50 in test [1] came out at 91 nM; in test [2] it was 94 nM; in test [3] it was 19 nM; in test [4], 17 nM; in test [5] it was 34 nM; in test [6] it was 545 nM.

In the case of `CCCc1cc(Nc2ncc(Cl)c(Nc3ccc4nccnc4c3N(C)S(C)(=O)=O)n2)c(OC)cc1N1CCC(N2CCOCC2)CC1` [Example A41, N-(6-((5-chloro-2-((2-methoxy-4-(4-morpholinopiperidin-1-yl)-5-propylphenyl)amino)pyrimidin-4-yl)amino)quinoxalin-5-yl)-N-methylmethanesulfonamide], the GI50 was 210 nM in test [1]; 258 nM in test [2]; 8 nM in test [3]; 44 nM in test [4]; 28 nM in test [5]; over 2000 nM in test [6].

With `COc1cc(N2CCC(N3CCN(C)C4(CC4)C3)CC2)ccc1Nc1ncc(Cl)c(Nc2ccc3nccnc3c2NS(C)(=O)=O)n1` [Example A15, N-(6-((5-chloro-2-((2-methoxy-4-(4-(4-methyl-4,7-diazaspiro[2.5]octan-7-yl)piperidin-1-yl)phenyl)amino)pyrimidin-4-yl)amino)quinoxalin-5-yl)methanesulfonamide], the GI50 in test [1] worked out at 423 nM; in test [2], 473 nM; in test [3], 295 nM; in test [4] it was 156 nM; in test [5], 211 nM; in test [6] it was 811 nM.

`CCc1cc(Nc2ncc(Cl)c(Nc3ccc4c(c3N(C)S(C)(=O)=O)OCCO4)n2)c(OC)cc1N1CCC(N2CCOCC2)CC1` [Example C30, N-(6-((5-chloro-2-((5-ethyl-2-methoxy-4-(4-morpholinopiperidin-1-yl)phenyl)amino)pyrimidin-4-yl)amino)-2,3-dihydrobenzo[b][1,4]dioxin-5-yl)-N-methylmethanesulfonamide]: the GI50 in test [1] came out at 38 nM; in test [2] it was 35 nM; in test [3], 6 nM; in test [4] it was 10 nM; in test [5] it was 13 nM; in test [6] it was 664 nM.

In the case of `COc1cc(C2CCNCC2)ccc1Nc1ncc(Cl)c(Nc2ccc3nccnc3c2NC(C)=O)n1` [Example D3, N-(6-((5-chloro-2-((2-methoxy-4-(piperidin-4-yl)phenyl)amino)pyrimidin-4-yl)amino)quinoxalin-5-yl)acetamide], the GI50 is 1030 nM in test [1]; 1180 nM in test [2]; 378 nM in test [3]; 678 nM in test [4]; 717 nM in test [5]; over 2000 nM in test [6].
